In patent US7772252B2, “Heterocyclic substituted carbonyl derivatives and their use as dopamine D3 receptor ligands” (Aventis Pharmaceuticals Inc., priority 2001, dated 2010):
pKi: −log10 of the molar value.

These compounds were tested against T1, cloned human dopamine D3 receptors (Homo sapiens, UniProt P35462) (assay: [N-Methyl-3H]Spiroperidol binding to cloned human dopamine D3 receptors). Conditions: read-out: D3 Ki.
T1 construct: expressed in transfected cells; membrane homogenate
Excerpt: [N-Methyl-^3H]Spiroperidol Binding to Cloned Human Dopamine D3 Receptors
This assay measures the in vitro activity of compounds on cloned human dopamine (D3) receptors and predicts the direct dopamine-blocking properties of putative neuropsychiatric agents at human dopamine D3 receptors.
The D3 gene was isolated from a human striatal cDNA library (Stratagene). The gene was sequenced and sub-cloned into the expression vector RC/RSV (Invitrogen). CHO (Chinese Hamster Ovary) cells were stably transfected with 10 μg of the D3/RSV plasmid using the DOTAP method from Boehringer Mannheim and 72 clones that were G418 resistant were isolated. Using mRNA and binding displacement data a single high expressing clone was identified. This clone was then grown in large batches for the purpose of developing a 96 well format assay.
• 1. One plate (10 cm) with approximately 2-3 million D3 cells per plate is incubated with 1 ml of Trypsin-EDTA at room temperature for ˜2 min or until cells have lifted off plates. Four ml of Ham's F12+10% Fetal Bovine Serum+1% Penicillin/Streptomycin+G418 (400 μg/ml) medium are added to resuspend cells and 1 ml of this is added to each large plate (15 cm) containing 19 ml of the same medium as mentioned above. • 2. The 5 large plates are incubated at 37° C.+5% CO2 for ˜3 days or until the cells are confluent. • 3. After these plates are confluent, they are split into 10 large plates. Medium is aspirated off, 2 ml of Trypsin-EDTA are added to each plate and plates are incubated at RT for 2 min or until cells have lifted off the plate. Eight ml of the F12 medium (same medium as #1 above) are added to each plate (10 ml total) to resuspend the cells and 5 ml are transferred to the 2 new plates containing 15 ml of the F12 media. • 4. The 10 large plates are incubated at 37° C.+5% CO2 for ˜2 days or until the cells are confluent. • 5. The 10 large plates are split into 60 large plates (using Trypsin-EDTA as #3 except 4 ml of F12 medium are added to resuspend cells and 1 ml is aliquoted to 6 new plates containing 19 ml of F12 medium each). • 6. Plates are incubated at 37° C.+5% CO2 for ˜3 days or until cell are confluent. • 7. The 60 large plates are then split into 60 roller bottles (100-150 million cells/bottle). Medium is aspirated off, 2 ml of Trypsin-EDTA are added to each plate and incubated at RT for ˜2 minutes or until cells have lifted off plates. Eight ml of F12 medium are added to each plate to resuspend cells and the entire 10 ml are added to 1 roller bottle containing 90 ml of the F12 medium. • 8. The 60 roller bottles are immediately placed on their sides and transferred to the roller bottle incubator. They are incubated at 37° C.+5% CO2 for ˜3-5 days. Cells are spun at 30-40% motor speed in the Form a incubator. • 9. Medium is poured off and cells are washed 2× in PBS. • 10. Cells are then scraped off in 20 ml of PBS and the bottles are rinsed again with 5 ml of PBS to remove any remaining cells. Cells are stored on ice before membrane preparation. • 11. The yield for 60 D3 roller bottles has varied from ˜260-500 mg. • Note: All tissue culture reagents are from Gibco-BRL. C. Membrane Preparation
The cells are harvested into 250 ml centrifuge tubes with 100 volumes of cold phosphate buffered saline (PBS) and spun down (1200×G for 10 min at 4° C.). The medium is removed and 100 ml PBS are added to each centrifuge tube, cells are resuspened and spun down again. The PBS is removed and the final pellet is homogenized in an appropriate volume of 10% DMSO with a polytron on ice at a medium setting.
A 200 μl sample membrane homogenate is added to 200 μl of 1% SDS, vortexed and allowed to stand for 5 min. Aliquots (25, 50 and 100 μl) of this mixture are assayed in duplicate following the standard Bio-Rad DC protein assay protocol (kit catalog number 500-0112) and using reagent S. Absorbance readings are made at 750 nm (note: the most accurate protein OD readings are between 0.1-0.5 units). […]

T1 sequence (P35462 whole entry): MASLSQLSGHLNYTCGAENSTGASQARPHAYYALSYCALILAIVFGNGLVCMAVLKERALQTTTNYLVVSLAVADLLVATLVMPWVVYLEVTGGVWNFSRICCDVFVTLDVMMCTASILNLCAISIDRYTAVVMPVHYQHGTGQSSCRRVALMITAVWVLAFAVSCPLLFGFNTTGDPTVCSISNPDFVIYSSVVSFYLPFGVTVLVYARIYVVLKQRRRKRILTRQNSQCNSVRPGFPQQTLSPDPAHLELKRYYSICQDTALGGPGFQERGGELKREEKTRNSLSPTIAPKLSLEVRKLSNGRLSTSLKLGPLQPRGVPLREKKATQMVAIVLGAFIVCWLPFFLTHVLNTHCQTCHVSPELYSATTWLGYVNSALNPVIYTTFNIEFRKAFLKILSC

Row | pKi | Compound
1 | 6.56 | O=C(NCCCn1nnc2ccccc21)C1CC1CN1CCC(c2noc3ccsc23)CC1 (racemic) [compound 831687]
2 | 7.79 | O=C(NCCS(=O)(=O)c1cccc2c(Cl)cccc12)C1CC1CN1CCC(c2noc3ccsc23)CC1 (racemic) [compound 831689]
3 | 7.25 | NS(=O)(=O)c1ccc(CCNC(=O)C2CC2CN2CCC(c3noc4ccsc34)CC2)cc1 (racemic) [compound 831701]
4 | 7.55 | O=C(C1CC1CN1CCC(c2noc3ccsc23)CC1)N1CCC(c2nc3ccccc3s2)CC1 (racemic) [compound 831702]
5 | 7.35 | O=C(C1CC1CN1CCC(c2noc3ccsc23)CC1)N1CCC(c2cc(-c3cccs3)[nH]n2)CC1 (racemic) [compound 831703]
6 | 7.32 | O=C(C1CC1CN1CCC(c2noc3ccsc23)CC1)N1CCC(c2cc(-c3ccco3)[nH]n2)CC1 (racemic) [compound 831704]
7 | 7.09 | O=C(NCc1cccc(Oc2ccccc2)c1)C1CC1CN1CCC(c2noc3ccsc23)CC1 (racemic) [compound 831735]
8 | 6.54 | O=C(NCCS(=O)(=O)c1ccccc1)C1CC1CN1CCC(c2noc3ccsc23)CC1 (racemic) [compound 831736]
9 | 8.90 | O=C(C1CC1CN1CCC(c2noc3ccsc23)CC1)N1CCC(n2c(=O)[nH]c3ccccc32)CC1 (racemic) [compound 831737]
10 | 6.65 | CCN(CC)C(=O)C1CCN(C(=O)C2CC2CN2CCC(c3noc4ccsc34)CC2)CC1 (racemic) [compound 831738]
11 | 8.53 | CN(C)Cc1ccc(CSCCNC(=O)C2CC2CN2CCC(c3noc4ccsc34)CC2)o1 (racemic) [compound 831740]
12 | 6.90 | CN1CCN(CCCNC(=O)C2CC2CN2CCC(c3noc4ccsc34)CC2)CC1 (racemic) [compound 831741]
13 | 7.56 | O=C(C1CC1CN1CCC(c2noc3ccsc23)CC1)N1CCC(Oc2ccc(Cl)cc2)CC1 (racemic) [compound 831794]
14 | 8.74 | COc1ccc(CN2CCC(NC(=O)C3CC3CN3CCC(c4noc5ccsc45)CC3)CC2)cc1 (racemic) [compound 831795]
15 | 7.33 | O=C(NCCc1ccccc1Cl)C1CC1CN1CCC(c2noc3ccsc23)CC1 (racemic) [compound 831798]
16 | 7.92 | O=C(NCCc1cccc(Cl)c1)C1CC1CN1CCC(c2noc3ccsc23)CC1 (racemic) [compound 831799]

Second part, the compound before the results:

Row | Compound | pKi
17 | C[C@H]1CC[C@H](NC(=O)[C@@H]2CC[C@H]2CN2CCN(c3noc4ccsc34)CC2)CC1 (racemic) [compound 829996] | 6.56
18 | C[C@H]1CC[C@H](NC(=O)[C@@H]2CC[C@H]2CN2CCCN(c3csc4cc(F)ccc34)CC2)CC1 (racemic) [compound 829997] | 7.98
19 | C[C@H]1CC[C@H](NC(=O)[C@@H]2CC[C@H]2CN2CCCN(c3noc4ccsc34)CC2)CC1 (racemic) [compound 830000] | 6.54
20 | CCC1CCC(NC(=O)C2CC2CN2CCN(c3nn(-c4ccc(C(F)(F)F)cc4)c4ccccc34)CC2)CC1 (racemic) [compound 830046] | 7.78
21 | CCC1CCC(NC(=O)C2CC2CN2CCC(c3cc4cc(OC)cc(Br)c4o3)CC2)CC1 (racemic) [compound 830112] | 7.27
22 | CC1CCC(NC(=O)C2CC2CN2CCN(c3nn(-c4ccccc4F)c4ccccc34)CC2)CC1 (racemic) [compound 830114] | 8.27
23 | CC1CCC(NC(=O)C2CC2CN2CCN(c3n[nH]c4ccccc34)CC2)CC1 (racemic) [compound 830116] | 7.88
24 | CC1CCC(NC(=O)C2CC2CN2CCN(c3onc4c3CCc3ccccc3-4)CC2)CC1 (racemic) [compound 830121] | 7.33
25 | CC1CCC(NC(=O)C2CC2CN2CCCN(c3onc4c3CCc3ccccc3-4)CC2)CC1 (racemic) [compound 830123] | 7.13
26 | CC1CCC(NC(=O)C2CC2CN2CCN(c3n[nH]c4cc(Cl)ccc34)CC2)CC1 (racemic) [compound 830124] | 8.74
27 | CC1CCC(NC(=O)C2CC2CN2CCCN(c3noc4ccsc34)CC2)CC1 (racemic) [compound 830126] | 7.62
28 | CC1CCC(NC(=O)C2CC2CN2CCN(c3noc4ccsc34)CC2)CC1 (racemic) [compound 830127] | 8.78
29 | CCOC(=O)c1cc2ccc(N3CCCN(CC4CC4C(=O)NC4CCC(CC)CC4)CC3)cc2s1 (racemic) [compound 830128] | 7.16
30 | CCC1CCC(NC(=O)C2CC2CN2CCN(c3nn(-c4ccccc4)c4cc(F)ccc34)CC2)CC1 (racemic) [compound 830129] | 8.38
31 | CCC1CCC(NC(=O)C2CC2CN2CCCN(c3onc4c3CCc3ccc(OC)cc3-4)CC2)CC1 (racemic) [compound 830131] | 7.47
32 | CCC1CCC(NC(=O)C2CC2CN2CCC(c3ccccc3Cc3ccccc3)CC2)CC1 (racemic) [compound 830132] | 8.03
33 | COc1c(F)ccc2c(C3CCN(CC4CC4C(=O)NC4CCC(C)CC4)CC3)noc12 (racemic) [compound 830134] | 9.22

Row | Compound | pKi
34 | COc1ccc2[nH]nc(N3CCN(CC4CC4C(=O)NC4CCC(C)CC4)CC3)c2c1 (racemic) [compound 830439] | 7.75
35 | O=C(NCCc1cccs1)C1CC1CN1CCC(c2noc3ccsc23)CC1 (racemic) [compound 831385] | 7.64
36 | O=C(C1CC1CN1CCC(c2noc3ccsc23)CC1)N1CCN(Cc2ccc(Cl)c(Cl)c2)CC1 (racemic) [compound 831390] | 9.06
37 | O=C(Cc1ccccc1)NNC(=O)C1CC1CN1CCC(c2noc3ccsc23)CC1 (racemic) [compound 831452] | 6.94
38 | O=C(OCc1ccccc1)N1CCN(C(=O)C2CC2CN2CCC(c3noc4ccsc34)CC2)CC1 (racemic) [compound 831453] | 7.74
39 | O=C(NCc1ccc2ccccc2c1)C1CC1CN1CCC(c2noc3ccsc23)CC1 (racemic) [compound 831454] | 8.73
40 | O=C(NCc1ccc(-c2ccccc2)cc1)C1CC1CN1CCC(c2noc3ccsc23)CC1 (racemic) [compound 831455] | 8.17
41 | O=C(NCCc1cccnc1)C1CC1CN1CCC(c2noc3ccsc23)CC1 (racemic) [compound 831456] | 8.21
42 | O=C(NC1CCN(Cc2ccccc2)CC1)C1CC1CN1CCC(c2noc3ccsc23)CC1 (racemic) [compound 831457] | 8.74
43 | O=C(c1ccc(Cl)cc1)C1CCN(C(=O)C2CC2CN2CCC(c3noc4ccsc34)CC2)CC1 (racemic) [compound 831458] | 8.13
44 | COc1ccc(C2=CCN(C(=O)C3CC3CN3CCC(c4noc5ccsc45)CC3)CC2)cc1 (racemic) [compound 831599] | 7.30
45 | O=C(C1CC1CN1CCC(c2noc3ccsc23)CC1)N1CCC(c2ccccc2)C1 (racemic) [compound 831602] | 7.71
46 | O=C(NCCNc1ccccc1)C1CC1CN1CCC(c2noc3ccsc23)CC1 (racemic) [compound 831603] | 7.68
47 | CC(C)COC(=O)n1c(CCCNC(=O)C2CC2CN2CCC(c3noc4ccsc34)CC2)nc2ccccc21 (racemic) [compound 831621] | 7.15
48 | O=C(NCCCc1nc2ccccc2[nH]1)C1CC1CN1CCC(c2noc3ccsc23)CC1 (racemic) [compound 831622] | 7.46
49 | O=C(NCCNC(=O)C1CC1CN1CCC(c2noc3ccsc23)CC1)OCc1ccccc1 (racemic) [compound 831649] | 6.76
50 | O=C(NCCCCc1cccnc1)C1CC1CN1CCC(c2noc3ccsc23)CC1 (racemic) [compound 831686] | 7.60
